Patent US20110105381A2, “Prodrugs of Peripheral Phenolic Opioid Antagonists” (PharmacoFore, Inc., priority 2007, published 2011)
Structures can show the parent of a compound that is named as a salt.

Assay: Plasma timecourse of N-MTX following PO administration to rat
Conditions: oral dosing in rats at the doses of Table 1
Description: (§1) Plasma Timecourse of Peripheral Phenolic Opioid Antagonists Following PO Administration to Rat
(§2) Oral dosing: The test compounds were dissolved in saline and dosed via oral gavage into jugular vein cannulated male Sprague-Dawley rats. N-MTX and N-MNLX, each at 20 mg/kg, were used as positive controls and the test compounds were dosed at the doses indicated in Tables 1 and 2. At specified time points, blood samples were withdrawn, quenched into methanol, centrifuged at 14000 rpm @ 4° C., and stored at −80° C. until analysis. Samples were quantified via LC/MS/MS using an ABI 3000 triple-quad mass spectrometer.

SMILES | detectable levels of N-MTX
CC(=O)N[C@@H](CCCNC(=N)N)C(=O)NCCN(C)C(=O)Oc1ccc2c3c1O[C@H]1C(=O)CC[C@@]4(O)C(C2)[N@+](C)(CC2CC2)CC[C@]314 [Example 4, (R)—N-Methylnaltrexone 3-(N-methyl-N-(2-N-acetylarginylamino))ethylcarbamate] | did not afford detectable levels of N-MTX
CN(CCNC(=O)[C@@H](N)Cc1ccc(O)cc1)C(=O)Oc1ccc2c3c1O[C@H]1C(=O)CC[C@@]4(O)C(C2)[N@+](C)(CC2CC2)CC[C@]314 [Example 7, (R)—N-Methylnaltrexone 3-(N-methyl-N-(2-N-tyrosinylamino))ethylcarbamate] | did not afford detectable levels of N-MTX
CN(CCNC(=O)[C@@H](N)CC(N)=O)C(=O)Oc1ccc2c3c1O[C@H]1C(=O)CC[C@@]4(O)C(C2)[N@+](C)(CC2CC2)CC[C@]314 [Example 5, (R)—N-Methylnaltrexone 3-(N-methyl-N-(2-N-asparaginylamino))ethylcarbamate] | did not afford detectable levels of N-MTX
CN(CCNC(=O)[C@@H](N)CCCCN)C(=O)Oc1ccc2c3c1O[C@H]1C(=O)CC[C@@]4(O)C(C2)[N@+](C)(CC2CC2)CC[C@]314 [Example 9, (R)—N-Methylnaltrexone 3-(N-methyl-N-(2-N-lysinylamino))ethylcarbamate] | did not afford detectable levels of N-MTX
C[C@H](N)C(=O)NCCN(C)C(=O)Oc1ccc2c3c1O[C@H]1C(=O)CC[C@@]4(O)C(C2)[N@+](C)(CC2CC2)CC[C@]314 [Example 8, (R)—N-Methylnaltrexone 3-(N-methyl-N-(2-N-alaninylamino))ethylcarbamate] | did not afford detectable levels of N-MTX
C[C@H](NC(=O)CN)C(=O)NCCN(C)C(=O)Oc1ccc2c3c1O[C@H]1C(=O)CC[C@@]4(O)C(C2)[N@+](C)(CC2CC2)CC[C@]314 [Example 12, (R)—N-Methylnaltrexone 3-(N-methyl-N-(2-N-glycinylalaninylamino))-ethylcarbamate] | did not afford detectable levels of N-MTX

Same assay, conditions: oral dosing in rats; Cmax and/or persistence of exposure compared with N-MTX itself

SMILES | pharmacokinetic profile (e.g. oral bioavailability), N-MTX
CC(=O)NCC(=O)N[C@@H](CCCNC(=N)N)C(=O)NCCN(C)C(=O)Oc1ccc2c3c1O[C@H]1C(=O)CC[C@@]4(O)C(C2)[N@+](C)(CC2CC2)CC[C@]314 [Example 11, (R)—N-Methylnaltrexone 3-(N-methyl-N-(2-N—(N-acetyl)glycinylarginylamino))-ethylcarbamate] | improved pharmacokinetic profile
CN(CCNC(=O)[C@@H](N)CCCNC(=N)N)C(=O)Oc1ccc2c3c1O[C@H]1C(=O)CC[C@@]4(O)C(C2)[N@+](C)(CC2CC2)CC[C@]314 [Example 3, (R)—N-Methylnaltrexone 3-(N-methyl-N-(2-arginylamino))ethylcarbamate] | improved pharmacokinetic profile
CN(CCNC(=O)[C@H](CCCNC(=N)N)NC(=O)CN)C(=O)Oc1ccc2c3c1O[C@H]1C(=O)CC[C@@]4(O)C(C2)[N@+](C)(CC2CC2)CC[C@]314 [Example 10, (R)—N-Methylnaltrexone 3-(N-methyl-N-(2-N-glycinylarginylamino))ethylcarbamate] | improved pharmacokinetic profile
CC(C)C[C@H](N)C(=O)NCCN(C)C(=O)Oc1ccc2c3c1O[C@H]1C(=O)CC[C@@]4(O)C(C2)[N@+](C)(CC2CC2)CC[C@]314 [Example 2, (R)—N-Methylnaltrexone 3-(N-methyl-N-(2-leucinylamino))ethylcarbamate Hydrochloride] | improved pharmacokinetic profile
CN(CCNC(=O)[C@H](Cc1ccccc1)NC(=O)CN)C(=O)Oc1ccc2c3c1O[C@H]1C(=O)CC[C@@]4(O)C(C2)[N@+](C)(CC2CC2)CC[C@]314 [Example 13, (R)—N-Methylnaltrexone 3-(N-methyl-N-(2-N-glycinylphenylalaninylamino))-ethylcarbamate] | improved pharmacokinetic profile
C[N@@+]1(CC2CC2)CC[C@]23c4c5ccc(O)c4O[C@H]2C(=O)CC[C@@]3(O)C1C5 [N-MTX, (R)—N-methylnaltrexone, reference compound] | poor pharmacokinetic profiles
CN(CCNC(=O)[C@@H](N)CC(=O)O)C(=O)Oc1ccc2c3c1O[C@H]1C(=O)CC[C@@]4(O)C(C2)[N@+](C)(CC2CC2)CC[C@]314 [Example 6, (R)—N-Methylnaltrexone 3-(N-methyl-N-(2-N-aspartinylamino))ethylcarbamate] | improved pharmacokinetic profile

Assay: Plasma timecourse of N-MNLX following PO administration to rat
Assay type: in vivo, male Sprague-Dawley rats
Conditions: oral dosing in rats; Cmax and/or persistence of exposure compared with N-MNLX itself
Description: as §1, §2

SMILES | pharmacokinetic profile (e.g. oral bioavailability), N-MNLX
C=CC[N+]1(C)CC[C@]23c4c5ccc(O)c4O[C@H]2C(=O)CC[C@@]3(O)[C@H]1C5.[Br-] (stereo partly shown) [N-MNLX, N-methylnaloxone, reference compound] | poor pharmacokinetic profiles
C=CC[N+]1(C)CC[C@]23c4c5ccc(OC(=O)N(C)CCN)c4O[C@H]2C(=O)CC[C@@]3(O)[C@H]1C5 (stereo partly shown) [Example 14, N-Methylnaloxone 3-(N-methyl-N-(2-aminoethyl))carbamate] | improved pharmacokinetic profile

Assay: not given
Conditions: rat, in vivo

SMILES | pharmacokinetic profile (e.g. oral bioavailability), N-MTX
CN(CCN)C(=O)Oc1ccc2c3c1O[C@H]1C(=O)CC[C@@]4(O)[C@@H](C2)[N+](C)(CC2CC2)CC[C@]314.Cl.[Cl-] (stereo partly drawn) [Example 1, (R)—N-Methylnaltrexone 3-(N-methyl-N-(2-aminoethyl))carbamate] | improved pharmacokinetic profile
